Test results: patent US8053460B2, “Indole derivatives having antitumor activity” (Sigma-Tau Industrie Farmaceutiche Riunite S.p.A., priority 2005, dated 2011)
Like-named read-outs stand apart in the source and are kept apart here.

Columns and labels:
Type in all cases: cell-based
[1] = test system: NCI-H460 non-small cell carcinoma cells; assay: Cytotoxicity (sulphorodamine B) on NCI-H460 tumour cells; details: Homo sapiens
Description: (§1) To test the effects of the compounds on cell growth, NB4 human promyelocytic leukaemia, NCI-H460 non-small cell carcinoma cells and HCT-116 human colon carcinoma cells were used. NB4 and NCI-H460 tumour cells were grown RPMI 1640 containing 10% fetal bovine serum (GIBCO), whereas HCT-116 tumour cells were grown in McCoy's 5A containing 10% fetal bovine serum (GIBCO).
(§2) Tumour cells were seeded in 96-well tissue culture plates (Corning) at approximately 10% confluence and were allowed to attach and recover for at least 24 h. Varying concentrations of the drugs were then added to each well to calculate their IC50 value (the concentration which inhibits the 50% of cell survival). The plates were incubated for 24 h at 37° C. At the end of the treatment, for NB4 tumour cells in suspension, the procedure was performed as follows: medium culture was removed by centrifugation of the plates at 1600×g for 10 min and the surnatant was removed. 250 μl PBS were added, then the plates were centrifuged at 1600×g for 10 min, the surnatant was removed. 200 μl/well of medium culture RPMI 1640 containing 10% FCS were added and the plates were incubated at 37° C. for other 48 h. The plates were centrifuged again at 1600×g for 10 min, the medium culture was removed and 200 μl PBS and 50 μl of cold 80% TCA were added. The plates were incubated on ice for at least 1 h. TCA was removed, the plates were washed 3 times for immersion in distilled-water and dried on paper and at 40° C. for 5 min. Then 200 μl of 0.4% sulphorodamine B in 1% acetic acid were added. The plates were incubated at room temperature for other 30 min. Sulphorodamine B was removed, the plates were washed for immersion in 1% acetic acid for 3 times, then they were dried on paper and at 40° C. for 5 min. Then 200 μl Tris 10 mM were added, the plates were kept under stirring for 20 min. The survival cell was determined as optical density by a Multiskan spectrofluorimeter at 540 nm. For the tumour cells in adhesion (NCI-H460 and HCT-116), the procedure was as above mentioned, except that at the end of the treatment, the plates were washed by remotion of the surnatant and addition of PBS 3 times without centrifugation. Also the last day of the assay, the surnatant was removed without centrifugation.
(§3) The amount of cells killed was calculated as the percentage decrease in sulphorodamine B binding compared with control cultures. The IC50 values (the concentration which inhibits the 50% of cell survival) were calculated with the “ALLFIT” program.

[2] = test system: NB4 human promyelocytic leukaemia cells; assay: Cytotoxicity (sulphorodamine B) on NB4 tumour cells
Description: as §1, §2, §3

[3] = test system: HCT-116 human colon carcinoma cells; assay: Cytotoxicity (sulphorodamine B) on HCT-116 tumour cells; details: HCT-116 cells, 24 h treatment then 48 h recovery, read-out: HCT-116 IC50 ± SD
Description: as §1, §2, §3

[4] = NCI-H460 cells, 24 h treatment then 48 h recovery, sulphorodamine B, read-out: NCI-H460 IC50 ± SD
[5] = Homo sapiens, NB-4, NB4 cells, 24 h treatment then 48 h recovery, sulphorodamine B, read-out: NB4 IC50 ± SD
[6] = Homo sapiens, range stated jointly for NB4, NCI-H460 and HCT-116, minor cytotoxicity, read-out: IC50 values on NB4 or NCI-H460 and HCT-116 (range given)
[7] = range stated jointly for NCI-H460 non-small cell lung cancer and HCT-116 colon cancer, read-out: IC50 values on NCI-H460 and HCT-116 (range given)
[8] = NB4 cells, 24 h treatment then 48 h recovery, sulphorodamine B, read-out: NB4 IC50 ± SD

SMILES	IC50 [1, 4]	IC50 [2, 5]	IC50 [2, 6]	IC50 [3]	IC50 [1, 7]	IC50 [2, 8]
O=C(CCC(c1c[nH]c2ccccc12)c1c[nH]c2ccccc12)NO [ST2408, N-Hydroxy-4,4-bis-(1H-indol-3-yl)-butyramide]	25900 ± 300 nM	14600 ± 600 nM	8800 to 88800 nM			
O=C(CCCCCC(c1c[nH]c2ccccc12)c1c[nH]c2ccccc12)NO [ST2741, 7,7-Bis-(1H-indol-3-yl)-heptanoic acid hydroxyamide]	1200 ± 100 nM	400 to 2300 nM		600 ± 20 nM	600 to 5800 nM	600 ± 10 nM
O=C(CCCC(c1c[nH]c2ccccc12)c1c[nH]c2ccccc12)NO [ST2743, 5,5-Bis-(1H-indol-3-yl)-pentanoic acid hydroxyamide]	88800 ± 2800 nM		8800 to 88800 nM			
O=C(CCCCC(c1c[nH]c2ccccc12)c1c[nH]c2ccccc12)NO [ST2754, 6,6-Bis-(1H-indol-3-yl)-hexanoic acid hydroxyamide]	5200 ± 300 nM			5800 ± 200 nM	600 to 5800 nM	
O=C(C=Cc1ccc(C(c2c[nH]c3ccccc23)c2c[nH]c3ccccc23)cc1)NO [ST2887, 3-{4-[Bis-(1H-indol-3-yl)-methyl]-phenyl}-N-hydroxy-acrylamide]	2600 ± 300 nM	400 to 2300 nM		3900 ± 500 nM	600 to 5800 nM	600 ± 10 nM
O=C(CCCCCCC(c1c[nH]c2ccccc12)c1c[nH]c2ccccc12)NO [ST2889, 8,8-Bis-(1H-indol-3-yl)-octanoic acid hydroxyamide]	2700 ± 200 nM			3500 ± 200 nM	600 to 5800 nM	
O=C(CCCCCc1c[nH]c2ccccc12)NO [ST2995, N-hydroxy-6-(1H-indol-3-yl)hexanamide]	22000 ± 1700 nM	8800 ± 500 nM	8800 to 88800 nM			
COc1cccc2c(C(CCCCCC(=O)NO)c3c[nH]c4c(OC)cccc34)c[nH]c12 [ST3043, 7,7-Bis-(7-methoxy-1H-indol-3-yl)-heptanoic acid hydroxyamide]	550 ± 30 nM	400 to 2300 nM		410 ± 30 nM	270 to 700 nM	800 ± 10 nM
Cc1ccc2[nH]cc(C(CCCCCC(=O)NO)c3c[nH]c4ccc(C)cc34)c2c1 [ST3044, 7,7-Bis-(5-methyl-1H-indol-3-yl)-heptanoic acid hydroxyamide]	510 ± 100 nM	150 nM		270 ± 10 nM	270 to 700 nM	
O=C(CCCCCC(c1c[nH]c2cccc(F)c12)c1c[nH]c2cccc(F)c12)NO [ST3052, 7,7-Bis-(4-fluoro-1H-indol-3-yl)-heptanoic acid hydroxyamide]	700 ± 90 nM	400 to 2300 nM		400 ± 100 nM	270 to 700 nM	600 ± 90 nM
O=C(O)CCCCCC(c1c[nH]c2ccccc12)c1c[nH]c2ccccc12 [ST3127, 7,7-Bis-(1H-indol-3-yl)-heptanoic acid]	> 20000 nM	> 20000 nM	8800 to 88800 nM	> 20000 nM		
O=C(CCCCCC(c1cc2ccccc2[nH]1)c1c[nH]c2ccccc12)NO (centres unmarked) [ST3292, 7-(1H-Indol-3-yl)-7-(1H-indol-2-yl)-heptanoic acid hydroxyamide]	820 ± 70 nM	400 to 2300 nM			600 to 5800 nM	670 ± 10 nM
O=C(CCCCCC(C1C=Nc2ccc(CN3CCOCC3)cc21)C1C=Nc2ccc(CN3CCOCC3)cc21)NO (centres unmarked) [ST3307, 7,7-Bis-(5-morpholin-4-ylmethyl-3H-indol-3-yl)-heptanoic acid hydroxyamide]	1100 ± 100 nM	400 to 2300 nM			600 to 5800 nM	420 ± 20 nM
